# Patent US11312712B2, “Azabenzimidazoles and their use as AMPA receptor modulators” (Janssen Pharmaceutica NV, priority 2015, dated 2022)
# Molecular target: GluA1o-γ8 (GRIA1o-CACNG8 fusion construct) (Homo sapiens (Human), UniProt P42261+Q8WXS5)
# Assay: Calcium flux assay (FLIPR), inhibition of TARP γ8 dependent AMPA receptor activity
# Format: cell-based
# Conditions: GluA1o-γ8 (GRIA1o-CACNG8 fusion) in HEK293 cells, calcium flux after 15 μM glutamate
# Summary of the method: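 Glutamate (15 μM) was added to a stable HEK293 line carrying the GluA1o–γ8 fusion, which had been preincubated with compound and calcium dye in HEPES buffer, pH 7.4. Normalized FLIPR fluorescence (no compound vs 10 μM CP465022) was fitted with four parameters; pIC50 is the midpoint's negative log.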
# GluA1o-γ8 (GRIA1o-CACNG8 fusion construct), sequence (P42261 other isoform, or with tags, fused parts or gaps): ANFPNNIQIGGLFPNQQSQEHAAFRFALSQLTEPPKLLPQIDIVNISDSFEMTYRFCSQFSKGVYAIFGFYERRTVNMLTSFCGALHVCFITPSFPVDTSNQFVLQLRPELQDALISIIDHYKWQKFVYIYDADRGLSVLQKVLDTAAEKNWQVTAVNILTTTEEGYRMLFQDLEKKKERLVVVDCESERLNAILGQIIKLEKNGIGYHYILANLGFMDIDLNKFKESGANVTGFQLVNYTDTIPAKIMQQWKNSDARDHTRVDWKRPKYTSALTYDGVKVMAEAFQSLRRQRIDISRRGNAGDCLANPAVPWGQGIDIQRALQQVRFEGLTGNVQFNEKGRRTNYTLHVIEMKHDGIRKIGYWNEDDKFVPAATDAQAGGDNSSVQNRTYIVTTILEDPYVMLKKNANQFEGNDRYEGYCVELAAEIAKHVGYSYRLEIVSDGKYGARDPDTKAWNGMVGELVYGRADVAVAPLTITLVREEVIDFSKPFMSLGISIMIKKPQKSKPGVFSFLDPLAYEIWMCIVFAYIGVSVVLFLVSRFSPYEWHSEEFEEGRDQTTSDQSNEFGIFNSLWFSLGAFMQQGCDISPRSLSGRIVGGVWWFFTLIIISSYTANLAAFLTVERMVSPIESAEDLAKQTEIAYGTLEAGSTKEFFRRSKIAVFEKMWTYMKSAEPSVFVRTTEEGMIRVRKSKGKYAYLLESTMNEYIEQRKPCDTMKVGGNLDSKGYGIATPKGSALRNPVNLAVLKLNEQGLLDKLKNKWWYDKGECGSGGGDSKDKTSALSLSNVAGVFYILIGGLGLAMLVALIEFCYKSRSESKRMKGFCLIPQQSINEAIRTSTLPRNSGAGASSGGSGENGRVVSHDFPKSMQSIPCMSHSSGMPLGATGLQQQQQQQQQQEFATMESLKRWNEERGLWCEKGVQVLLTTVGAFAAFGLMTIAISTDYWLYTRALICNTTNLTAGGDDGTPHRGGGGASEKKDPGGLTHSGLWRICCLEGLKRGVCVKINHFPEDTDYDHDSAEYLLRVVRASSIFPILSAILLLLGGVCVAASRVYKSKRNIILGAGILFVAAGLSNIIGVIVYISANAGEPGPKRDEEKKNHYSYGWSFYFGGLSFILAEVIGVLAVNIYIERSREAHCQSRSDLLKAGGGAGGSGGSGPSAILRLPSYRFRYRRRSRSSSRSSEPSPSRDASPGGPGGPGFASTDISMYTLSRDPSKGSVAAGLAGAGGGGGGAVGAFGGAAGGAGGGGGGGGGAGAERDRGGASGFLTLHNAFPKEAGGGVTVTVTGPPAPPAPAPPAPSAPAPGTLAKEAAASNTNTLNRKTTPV
row,SMILES,IC50
1,"Cc1cc2cccnc2n1-c1cc(Cl)c2c(c1)CC(=O)N2 [Example 338, 7-Chloro-5-(2-methylpyrrolo[2,3-b]pyridin-1-yl)indolin-2-one]",7.94 nM
2,"CC[C@H](C)c1nc2ccc(C(F)(F)F)nc2n1-c1cc(Cl)c2[nH]ncc2c1 (single isomer, unassigned) [Example 405, (*S)-2-(sec-Butyl)-3-(7-chloro-1H-indazol-5-yl)-5-(trifluoromethyl)-3H-imidazo[4,5-b]pyridine]",0.0631 nM
3,"CC(C)c1cc2cccnc2n1-c1cc(F)c2c(c1)CC(=O)N2 [Example 361, 7-Fluoro-5-(2-isopropylpyrrolo[2,3-b]pyridin-1-yl)indolin-2-one]",7.94 nM
4,"CC(F)(F)c1nc2ccc(C(F)(F)F)nc2n1-c1ccc2c(c1)CC(=O)N2 [Example 93, 5-[2-(1,1-Difluoroethyl)-5-(trifluoromethyl)imidazo[4,5-b]pyridin-3-yl]indolin-2-one]",7.94 nM
5,"FC(F)c1ccc2nc(C(F)F)n(-c3cc(Cl)c4[nH]ncc4c3)c2n1 [Example 207, 3-(7-Chloro-1H-indazol-5-yl)-2,5-bis(difluoromethyl)imidazo[4,5-b]pyridine]",0.0631 nM
6,"CCOc1nc2ccc(C(F)(F)F)nc2n1-c1ccc2[nH]ncc2c1 [Example 114, 2-Ethoxy-3-(1H-indazol-5-yl)-5-(trifluoromethyl)imidazo[4,5-b]pyridine]",12.6 nM
7,"O=C1Cc2cc(-n3c(C(F)(F)F)nc4ccc(C(F)(F)F)nc43)cc(Cl)c2N1 [Example 271, 5-[2,5-Bis(trifluoromethyl)imidazo[4,5-b]pyridin-3-yl]-7-chloro-indolin-2-one]",0.2 nM

# Further lines, results first:
row,IC50,SMILES
1,0.126 nM,"Cc1cc(-n2c(C(C)C)cc3cc(F)cnc32)cc2c1NC(=O)C2 [Example 420, 5-(5-Fluoro-2-isopropyl-1H-pyrrolo[2,3-b]pyridin-1-yl)-7-methylindolin-2-one]"
2,0.0158 nM,"Cc1cc(-n2c(-c3ccc(F)cc3)nc3ccc(C(F)F)nc32)cc2cn[nH]c12 [Example 228, 5-(Difluoromethyl)-2-(4-fluorophenyl)-3-(7-methyl-1H-indazol-5-yl)imidazo[4,5-b]pyridine]"
3,6.31 nM,"O=C1Cc2cc(-n3c(CC4CCCC4)nc4ccc(C(F)(F)F)nc43)ccc2N1 [Example 54, 5-[2-(Cyclopentylmethyl)-5-(trifluoromethyl)imidazo[4,5-b]pyridin-3-yl]indolin-2-one]"
4,12.6 nM,"COc1ccc2nc(C3CC3)n(-c3ccc4[nH]ncc4c3)c2n1 [Example 157, 2-Cyclopropyl-3-(1H-indazol-5-yl)-5-methoxy-imidazo[4,5-b]pyridine]"
5,0.02 nM,"Cc1cc(-n2c(C(F)(F)F)nc3ccc(C(F)(F)F)nc32)cc2cn[nH]c12 [Example 294, 3-(7-Methyl-1H-indazol-5-yl)-2,5-bis(trifluoromethyl)imidazo[4,5-b]pyridine]"
6,15800 nM,"O=C1Cc2cc(-n3c(Cc4cnccn4)nc4ccc(C(F)(F)F)nc43)ccc2N1 [Example 57, 5-[2-(Pyrazin-2-ylmethyl)-5-(trifluoromethyl)imidazo[4,5-b]pyridin-3-yl]indolin-2-one]"
7,0.316 nM,"Cc1cc(-n2c(C=O)cc3ccc(C(F)(F)F)nc32)cc2c1NC(=O)C2 [Example 422, 1-(7-Methyl-2-oxoindolin-5-yl)-6-(trifluoromethyl)-1H-pyrrolo[2,3-b]pyridine-2-carbaldehyde]"
8,31.6 nM,"Cc1cc(-n2c(C(F)(F)F)nc3ccc(/C=C/CO)nc32)cc2cn[nH]c12 [Example 222, (E)-3-(3-(7-Methyl-1H-indazol-5-yl)-2-(trifluoromethyl)-3H-imidazo[4,5-b]pyridin-5-yl)prop-2-en-1-ol]"
9,79.4 nM,"CC(C)c1nc2ccc(C(F)(F)F)nc2n1-c1ccc2[nH]nc(Br)c2c1 [Example 298, 3-(3-Bromo-1H-indazol-5-yl)-2-isopropyl-5-(trifluoromethyl)imidazo[4,5-b]pyridine]"
10,0.1 nM,"O=C1Cc2cc(-n3c(-c4ccc(F)cc4)cc4ccc(Cl)nc43)ccc2N1 [Example 383, 5-[6-Chloro-2-(4-fluorophenyl)pyrrolo[2,3-b]pyridin-1-yl]indolin-2-one]"
